Paper PMC4814829, “Design, synthesis, crystallization and biological evaluation of new symmetrical biscationic compounds as selective inhibitors of human Choline Kinase α1 (ChoKα1)” (Scientific Reports, 2016)

What was measured:
[1] = tested on: Human fibroblasts; test: Antiproliferative assay in non-tumoral cells; type: cell-based; details: Fibroblast, mean ± SEM
Description: Human fibroblasts from foreskin were isolated as previously described[58] and maintained in DMEM medium with 10% fetal bovine serum added.

[2] = tested on: HeLa cells; test: Trypan blue exclusion assay; type: cell-based, human; details: concentration-dependent
Procedure: (§1) Human T-cell leukemia (Jurkat), human B-cell leukemia (RS 4,11) and human promyelocytic leukemia (HL-60) cells were grown in RPMI-1640 medium (Gibco, Milan, Italy). Breast adenocarcinoma (MCF-7 and MDA-MB-231), human non-small cell lung carcinoma (A549), human cervix carcinoma (HeLa), human prostate adenocarcinoma (PC-3), and human colon adenocarcinoma (HT-29) cells were grown in DMEM medium (Gibco, Milan, Italy). Both media were supplemented with 115 units/mL of penicillin G (Gibco, Milan, Italy), 115 μg/mL of streptomycin (Invitrogen, Milan, Italy) and 10% fetal bovine serum (Invitrogen, Milan, Italy). Stock solutions (10 mM) of the different compounds were obtained by dissolving them in DMSO. Individual wells of 96-well tissue-culture microtiter plates were inoculated with 100 μL of complete medium containing 8 × 10^3 cells. The plates were incubated at 37 °C in a humidified 5% CO2 incubator for 18 h prior to the experiments. After medium removal, 100 μL of fresh medium containing the test compound at different concentrations was added to each well and incubated at 37 °C for 72 h. The percentage of DMSO in the medium in no case exceeded 0.25%.

[3] = tested on: MDA-MB-231 cells; test: Trypan blue exclusion assay; type: cell-based, human; details: MDA-MB-231, concentration-dependent
Procedure: as §1

[4] = tested on: MCF-7 cells; test: Antiproliferative MTT assay; type: cell-based; details: Homo sapiens, MCF7, 72 h, mean ± SEM
Procedure: as §1

[5] = tested on: Jurkat cells; test: Antiproliferative MTT assay; type: cell-based; details: Homo sapiens, 72 h, mean ± SEM
Procedure: as §1

[6] = tested on: HeLa cells; test: Antiproliferative MTT assay; type: cell-based; details: Homo sapiens, 72 h, mean ± SEM
Procedure: as §1

[7] = tested on: A549 cells; test: Antiproliferative MTT assay; type: cell-based; details: Homo sapiens, 72 h, mean ± SEM
Procedure: as §1

[8] = tested on: HL-60 cells; test: Antiproliferative MTT assay; type: cell-based; details: Homo sapiens, 72 h, mean ± SEM
Procedure: as §1

[9] = tested on: PC-3 cells; test: Antiproliferative MTT assay; type: cell-based; details: Homo sapiens, 72 h, mean ± SEM
Procedure: as §1

[10] = tested on: RS4,11 cells; test: Antiproliferative MTT assay; type: cell-based; details: Homo sapiens, 72 h, mean ± SEM
Procedure: as §1

[11] = tested on: HT-29 cells; test: Antiproliferative MTT assay; type: cell-based; details: Homo sapiens, 72 h, mean ± SEM
Procedure: as §1

[12] = tested on: MDA-MB-231 cells; test: Antiproliferative MTT assay; type: cell-based; details: Homo sapiens, 72 h, mean ± SEM
Procedure: as §1

[13] = tested on: MCF-7 cells; test: Cell-cycle distribution analysis (PI, flow cytometry); type: cell-based, human
Procedure: [The source words this procedure for another cell line and reports this cell line under the same test.] (§2) For flow-cytometric analysis of the DNA content, 5 × 10^5 HeLa or Jurkat cells in exponential growth were treated with different concentrations of the test compounds for 24 and 48 h. After the incubation period, the cells were collected, centrifuged, and fixed with ice-cold ethanol (70%). The cells were then treated with lysis buffer containing RNAse A and 0.1% Triton X-100, and then stained with propidium iodide (PI). Samples were analyzed in a Cytomics FC500 flow cytometer (Beckman Coulter). DNA histograms were analyzed using MultiCycle for Windows (Phoenix Flow Systems).

[14] = tested on: Jurkat cells; test: as above; type: cell-based, human
Procedure: as §2

[15] = tested on: MDA-MB-231 cells; test: as above; type: cell-based, human
Procedure: [The source words this procedure for another cell line and reports this cell line under the same test.] as §2

`CN(C)c1cc[n+](Cc2ccc(OCCOc3ccc(C[n+]4ccc(N(C)C)cc4)cc3)cc2)cc1.[Br-].[Br-]` [Compound 10a, 1,1′-(((ethane-1,2-diylbis(oxy))bis(4,1-phenylene))bis(methylene))bis(4-(dimethylamino)pyridinium) bromide] was tested, and the GI50 [1] was 5.8 ± 1.3 µM, the “Cell growth by trypan blue count” value [2] was “significantly inhibited cell growth” and the “Cell growth by trypan blue count” value [3] was “significantly inhibited cell growth”. It also gave a GI50 [4] of 92 ± 19 nM, a GI50 [5] of 120 ± 80 nM and a GI50 [6] of 79 ± 24 nM. It also gave a GI50 [7] of 27 ± 10 nM, a GI50 [8] of 100 ± 40 nM and a GI50 [9] of 51 ± 10 nM. It also gave a GI50 [10] of 45 ± 5 nM, a GI50 [11] of 110 ± 10 nM and a GI50 [12] of 100 ± 50 nM. For the same compound, the “Cells with hypodiploid DNA content (apoptotic cells by cell-cycle analysis)” value (from here on “Cells with hypodiploid DNA content”) ([13]; MCF-7) was “not detected”, the “Cell-cycle effect (G1 phase)” value ([13]; MCF-7, 24 h, concentration-dependent) was “induced a G1 arrest of the cell cycle” and the “Cells with hypodiploid DNA content” value [14] was “not detected”. The “Cell-cycle effect (G1 phase)” value ([14]; 24 h, concentration-dependent) was “induced a G1 arrest of the cell cycle”, the “Cells with hypodiploid DNA content” value ([15]; MDA-MB-231) was “not detected” and the “Cell-cycle effect (G1 phase)” value ([15]; MDA-MB-231, 24 h, concentration-dependent) was “induced a G1 arrest of the cell cycle”.
